PMC5664514 (Proceedings of the National Academy of Sciences of the …, 2017)

Assays:
[1] = test system: BDNF; settings: 0.8–5 mM; cited from earlier work
[2] = test system: Tg2576 AD mice; settings: 200 mg/kg; cited from earlier work
[3] = test system: ADAM10; settings: via HDAC2/3 mechanism involving USF-1; cited from earlier work
[4] = test system: HEK/APPsw cells; test: CellTiter-Glo luminescent cell viability assay; type: cell-based; settings: 10 μM, 48 h
[5] = test system: BDNF; settings: cited from earlier work
[6] = test system: Tg2576 AD mice; settings: 25 mg/kg and 50 mg/kg; cited from earlier work
[7] = test system: aged APP/PS1 mice; settings: 50 mg/kg i.p.; cited from earlier work
[8] = test system: APP-PS1-21 AD mice; settings: 2 mg/d orally, 10-mo-old mice; cited from earlier work
[9] = test system: HEK/APPsw cells; test: Western blot of APP metabolites, ADAM10, BACE1, BDNF in HEK/APPsw cells; type: cell-based, human; settings: 10 μM, vs DMSO

For `CC(O)CC(=O)O` (stereo not drawn) [β-hydroxybutyrate], which BDNF expression [1] is on record?
The BDNF expression was “increase BDNF expression”.

With `O=C([O-])CCCc1ccccc1.[Na+]` [sodium 4-phenylbutyrate] as the compound, how does the memory [2] read?
Its memory is “positive effects on memory”.

With `CCC(=O)CCCCC[C@@H]1NC(=O)[C@H]2CCCCN2C(=O)[C@H]([C@@H](C)CC)NC(=O)[C@H](Cc2cn(OC)c3ccccc23)NC1=O` [apicidin] as the compound, how does the ADAM10 expression [3] read?
Its ADAM10 expression is “up-regulating the expression of ADAM10”.

With `O=C(/C=C/C#Cc1cccc(NS(=O)(=O)c2ccccc2)c1)NO` [oxamflatin] as the compound, how does the cell viability [4] read?
Its cell viability is “significantly reduce cell viability”.

For `O=C(CCCCCCC(=O)Nc1ccccc1)NO` [SAHA, suberoylanilide hydroxamic acid], which cell viability [4] is on record?
Its cell viability is “significantly reduce cell viability”.

And the BDNF gene expression [5]?
The BDNF gene expression was “increase BDNF gene expression”.

And the fear conditioning behavior [6]?
The fear conditioning behavior was “not behaviorally”.

What about the “synaptic plasticity (long-term potentiation)” value [6] of the same compound?
The value was “positive effects on synaptic plasticity”.

And the cognitive behavior [7]?
Its cognitive behavior is “improvement of cognitive behavior”.

And the Aβ plaques [8]?
Its Aβ plaques is “no significant differences”.

And the H4K12 acetylation [8]?
The H4K12 acetylation was “increased H4K12 acetylation”.

What about the spatial memory [8] of the same compound?
The spatial memory was “partial improvement of spatial memory”.

What does the source list for `C=C(C)[C@@H](CC=C(C)C)C[C@@]12C[C@@H](CC=C(C)C)C(C)(C)[C@@](CC=C(C)C)(C(=O)C(C(=O)c3ccc(O)c(O)c3)=C1O)C2=O` [garcinol]?
BACE1 protein level, change (Western blot) [9]: 54.3%; mature APP, change (Western blot) [9]: 37.9%; sAPPα, change (Western blot) [9]: −33.6%
